Assay results published in patent publication US12576074B2, “Kits and methods for induction of cardioversion in subjects with atrial arrhythmias” (InCarda Therapeutics, Inc., priority 2020, dated 2026).
Values joined by “and” are separate entries in the source; they are usually repeats but may differ in a detail not shown here. Equal values may be shown once. Read-outs that look alike come from different tables or passages of the source.

Experiments:
[1] = cited from earlier work
Sinclair swine [2] = experiment: Electrocardiograms after IV infusion in swine
Description: After the animals were transferred to study, all animals were randomly assigned to treatment groups per the study design described below. This study was designed as a cross-over design with a minimum of 1-week washout between Treatment “A” and Treatment “B”. […] Electrocardiograms (EKGs) were performed prior to infusion and within 30 minutes of dose completion for both “A” and “B” treatments. Infusions were performed under sedation and anesthesia was maintained post-infusion for the duration of the blood collections. Blood was collected following TABLE 5 below: prior to infusion, halfway through infusion, and at 0, 2, 4, 6, 8, 10, 15, 30, 45, 60, and 120 minutes post-infusion completion for both treatment “A” and “B”.
Swine were sedated with target doses of 0.5 mg/kg of midazolam and 25 mg/kg of ketamine (actual doses ranging from […] and 24.83-25.33 mg/kg, respectively), with the exception of one animal which received half the target doses per veterinary instruction (0.26 mg/kg midazolam and 12.67 mg/kg ketamine). Animals were anesthetized with isoflurane (5% for induction, ˜0.5-3% for maintenance) via face mask inhalation for the duration of the infusion and blood collections. All anesthesia and monitoring of vital parameters were performed in accordance with ACL-2011.
All animals underwent an electrocardiogram (EKG) using the EMKA system. EKGs were collected prior to dosing (any time prior to each dose administration) and within 30 minutes completion of each infusion per TLE-2125, Physiological Data Collection for Large Animals Using the emkaPACK4g Acquisition System. ECG waveforms were quantitatively evaluated for heart rate (HR) and PR, QRS, and QT/QTc intervals using a validated ecgAUTO system (v3.5.5, emka TECHNOLOGIES, Paris, France). • QTcB (Bazett's)=QT/RR(1/2) • QTcF (Fridericia)=QT/RR(1/3) • QTcV (Van de Water)=QT−0.087 (RR−1000) Where RR=time between successive beats, measured in milliseconds.

[3] = molecular target: cardiac voltage-gated sodium channels (Nav1.5 subtype), peak sodium current (Homo sapiens, UniProt Q14524); details: unbinding from bound sodium channels; cited from earlier work
[4] = molecular target: ryanodine receptor RyR2 (IRyR) (Homo sapiens, UniProt Q92736); details: cited from earlier work
Sequence of ryanodine receptor RyR2 (IRyR) (Q92736 whole entry): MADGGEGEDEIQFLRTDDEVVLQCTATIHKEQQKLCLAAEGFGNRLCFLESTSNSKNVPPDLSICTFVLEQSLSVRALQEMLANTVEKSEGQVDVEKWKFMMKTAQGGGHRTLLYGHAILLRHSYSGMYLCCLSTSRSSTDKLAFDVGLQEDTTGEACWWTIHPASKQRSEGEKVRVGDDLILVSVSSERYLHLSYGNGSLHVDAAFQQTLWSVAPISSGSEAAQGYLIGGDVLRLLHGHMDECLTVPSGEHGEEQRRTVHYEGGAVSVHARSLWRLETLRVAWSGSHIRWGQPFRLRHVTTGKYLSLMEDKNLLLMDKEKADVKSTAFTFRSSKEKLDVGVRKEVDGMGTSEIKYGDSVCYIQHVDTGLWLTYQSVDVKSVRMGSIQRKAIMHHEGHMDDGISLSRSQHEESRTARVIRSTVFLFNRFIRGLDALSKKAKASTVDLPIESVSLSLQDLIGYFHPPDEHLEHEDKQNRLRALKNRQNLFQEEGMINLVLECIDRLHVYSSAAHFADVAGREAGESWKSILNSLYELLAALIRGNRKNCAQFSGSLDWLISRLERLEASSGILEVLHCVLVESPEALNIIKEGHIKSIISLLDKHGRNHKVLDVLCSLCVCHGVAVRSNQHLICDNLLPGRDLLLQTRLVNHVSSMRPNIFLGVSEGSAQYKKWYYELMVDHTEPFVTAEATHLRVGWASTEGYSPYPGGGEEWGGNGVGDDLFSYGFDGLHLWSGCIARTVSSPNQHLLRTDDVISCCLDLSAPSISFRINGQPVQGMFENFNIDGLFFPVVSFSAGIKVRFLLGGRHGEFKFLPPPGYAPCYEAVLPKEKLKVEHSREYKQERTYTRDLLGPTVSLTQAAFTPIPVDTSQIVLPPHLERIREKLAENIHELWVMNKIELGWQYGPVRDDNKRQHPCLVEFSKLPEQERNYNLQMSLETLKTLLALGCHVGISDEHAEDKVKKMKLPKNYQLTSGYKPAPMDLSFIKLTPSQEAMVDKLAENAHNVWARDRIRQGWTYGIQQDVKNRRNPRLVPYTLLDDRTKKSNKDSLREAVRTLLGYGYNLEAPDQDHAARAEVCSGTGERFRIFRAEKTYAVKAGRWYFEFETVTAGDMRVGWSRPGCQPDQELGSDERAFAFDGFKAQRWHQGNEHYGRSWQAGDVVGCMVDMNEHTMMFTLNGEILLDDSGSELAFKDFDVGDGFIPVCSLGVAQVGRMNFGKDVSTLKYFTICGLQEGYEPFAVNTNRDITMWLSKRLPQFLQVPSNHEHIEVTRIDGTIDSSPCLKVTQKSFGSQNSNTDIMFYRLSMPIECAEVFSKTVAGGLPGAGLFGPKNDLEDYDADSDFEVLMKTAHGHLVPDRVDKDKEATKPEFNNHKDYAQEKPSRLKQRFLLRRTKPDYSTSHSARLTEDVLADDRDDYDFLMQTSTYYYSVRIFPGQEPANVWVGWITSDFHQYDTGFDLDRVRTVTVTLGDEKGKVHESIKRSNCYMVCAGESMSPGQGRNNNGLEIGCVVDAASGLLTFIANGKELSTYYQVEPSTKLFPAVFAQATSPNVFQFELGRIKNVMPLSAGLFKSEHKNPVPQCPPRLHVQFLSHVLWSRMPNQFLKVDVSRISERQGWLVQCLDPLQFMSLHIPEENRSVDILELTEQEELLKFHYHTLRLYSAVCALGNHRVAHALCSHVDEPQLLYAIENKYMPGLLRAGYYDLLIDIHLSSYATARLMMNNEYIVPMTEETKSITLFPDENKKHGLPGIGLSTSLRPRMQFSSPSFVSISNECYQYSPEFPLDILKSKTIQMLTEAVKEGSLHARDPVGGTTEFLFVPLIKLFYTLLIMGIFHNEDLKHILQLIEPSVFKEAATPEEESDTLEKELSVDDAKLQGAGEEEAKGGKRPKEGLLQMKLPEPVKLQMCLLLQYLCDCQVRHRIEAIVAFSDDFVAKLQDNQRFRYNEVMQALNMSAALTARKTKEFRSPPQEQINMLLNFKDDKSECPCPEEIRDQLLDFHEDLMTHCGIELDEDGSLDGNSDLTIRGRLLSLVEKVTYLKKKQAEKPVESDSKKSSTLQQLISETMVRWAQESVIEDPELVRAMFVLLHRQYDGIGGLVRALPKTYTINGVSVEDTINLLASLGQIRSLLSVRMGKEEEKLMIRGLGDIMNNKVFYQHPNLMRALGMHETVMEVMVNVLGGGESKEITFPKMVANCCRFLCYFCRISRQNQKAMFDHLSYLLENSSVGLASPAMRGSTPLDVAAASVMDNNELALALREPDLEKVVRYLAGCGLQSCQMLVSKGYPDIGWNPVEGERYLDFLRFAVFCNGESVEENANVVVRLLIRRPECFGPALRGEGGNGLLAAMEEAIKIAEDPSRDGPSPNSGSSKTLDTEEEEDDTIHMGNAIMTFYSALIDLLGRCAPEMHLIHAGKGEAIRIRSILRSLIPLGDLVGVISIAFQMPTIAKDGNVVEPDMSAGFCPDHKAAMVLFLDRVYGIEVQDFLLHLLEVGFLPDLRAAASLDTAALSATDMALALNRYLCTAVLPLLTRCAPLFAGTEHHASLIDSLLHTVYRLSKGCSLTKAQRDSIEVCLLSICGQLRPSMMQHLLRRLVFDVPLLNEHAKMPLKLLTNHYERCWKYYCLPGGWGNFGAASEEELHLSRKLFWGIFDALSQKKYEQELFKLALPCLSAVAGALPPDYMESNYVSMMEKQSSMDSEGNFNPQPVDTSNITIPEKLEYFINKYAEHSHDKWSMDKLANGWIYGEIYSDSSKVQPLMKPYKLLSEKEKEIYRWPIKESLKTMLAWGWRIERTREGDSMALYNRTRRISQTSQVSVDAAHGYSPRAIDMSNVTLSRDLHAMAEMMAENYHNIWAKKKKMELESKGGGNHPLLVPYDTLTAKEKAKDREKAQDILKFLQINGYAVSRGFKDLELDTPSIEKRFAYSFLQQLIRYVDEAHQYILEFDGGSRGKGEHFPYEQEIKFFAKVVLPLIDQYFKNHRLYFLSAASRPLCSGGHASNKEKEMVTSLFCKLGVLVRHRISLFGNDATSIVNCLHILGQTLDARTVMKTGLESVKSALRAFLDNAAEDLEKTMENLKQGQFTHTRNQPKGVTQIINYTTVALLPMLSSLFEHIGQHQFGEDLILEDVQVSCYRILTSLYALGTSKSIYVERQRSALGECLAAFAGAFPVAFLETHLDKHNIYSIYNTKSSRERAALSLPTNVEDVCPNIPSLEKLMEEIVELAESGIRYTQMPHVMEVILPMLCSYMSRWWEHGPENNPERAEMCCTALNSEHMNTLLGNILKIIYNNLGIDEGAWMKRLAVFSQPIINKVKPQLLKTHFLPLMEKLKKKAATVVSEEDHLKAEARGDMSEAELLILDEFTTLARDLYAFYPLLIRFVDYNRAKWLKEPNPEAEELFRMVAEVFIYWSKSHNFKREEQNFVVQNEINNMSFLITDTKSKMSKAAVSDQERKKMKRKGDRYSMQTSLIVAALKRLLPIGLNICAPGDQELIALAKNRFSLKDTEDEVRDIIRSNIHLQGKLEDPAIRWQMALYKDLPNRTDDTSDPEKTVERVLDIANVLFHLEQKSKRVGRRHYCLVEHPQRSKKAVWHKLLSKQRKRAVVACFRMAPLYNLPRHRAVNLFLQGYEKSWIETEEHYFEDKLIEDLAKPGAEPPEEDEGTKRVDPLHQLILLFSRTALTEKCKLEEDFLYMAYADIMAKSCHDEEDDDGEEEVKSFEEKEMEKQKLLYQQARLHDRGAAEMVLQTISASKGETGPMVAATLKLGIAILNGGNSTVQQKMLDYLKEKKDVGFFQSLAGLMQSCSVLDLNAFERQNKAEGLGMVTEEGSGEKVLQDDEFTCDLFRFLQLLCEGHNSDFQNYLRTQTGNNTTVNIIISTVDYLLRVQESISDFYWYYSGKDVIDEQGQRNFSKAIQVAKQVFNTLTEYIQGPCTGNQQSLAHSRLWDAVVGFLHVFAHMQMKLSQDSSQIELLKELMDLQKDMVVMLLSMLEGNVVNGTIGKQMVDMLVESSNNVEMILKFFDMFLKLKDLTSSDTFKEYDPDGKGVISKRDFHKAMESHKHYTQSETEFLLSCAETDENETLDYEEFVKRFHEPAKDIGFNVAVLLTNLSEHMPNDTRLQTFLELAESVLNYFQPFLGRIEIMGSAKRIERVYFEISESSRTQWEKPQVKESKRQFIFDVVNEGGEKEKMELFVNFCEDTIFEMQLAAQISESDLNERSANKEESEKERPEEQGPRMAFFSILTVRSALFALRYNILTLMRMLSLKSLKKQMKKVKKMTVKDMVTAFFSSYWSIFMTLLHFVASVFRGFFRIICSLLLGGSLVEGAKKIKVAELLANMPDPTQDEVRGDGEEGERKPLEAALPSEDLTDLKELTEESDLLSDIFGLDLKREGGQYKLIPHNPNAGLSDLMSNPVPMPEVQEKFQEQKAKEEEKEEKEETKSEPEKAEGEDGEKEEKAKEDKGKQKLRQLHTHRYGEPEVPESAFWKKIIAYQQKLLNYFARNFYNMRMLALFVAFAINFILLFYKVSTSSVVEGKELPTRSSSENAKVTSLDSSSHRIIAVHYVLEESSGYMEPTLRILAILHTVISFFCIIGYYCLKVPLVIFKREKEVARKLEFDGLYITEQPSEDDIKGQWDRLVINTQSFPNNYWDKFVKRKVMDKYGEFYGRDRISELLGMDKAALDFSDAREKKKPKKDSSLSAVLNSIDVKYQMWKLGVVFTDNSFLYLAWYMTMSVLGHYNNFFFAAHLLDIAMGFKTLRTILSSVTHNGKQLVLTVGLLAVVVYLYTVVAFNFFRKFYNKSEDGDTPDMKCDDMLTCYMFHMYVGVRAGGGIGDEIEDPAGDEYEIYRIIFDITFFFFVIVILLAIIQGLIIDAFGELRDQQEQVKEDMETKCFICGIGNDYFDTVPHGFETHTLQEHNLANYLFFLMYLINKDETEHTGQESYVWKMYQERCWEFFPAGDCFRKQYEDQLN

Ito = details: value used in O'Hara-Rudy model; cited from earlier work
IK1 = molecular target: T1, IK1 (Homo sapiens, UniProt P63252); details: flecainide increases IK1; used to calculate Gk1; cited from earlier work
T1 sequence (P63252 1-427): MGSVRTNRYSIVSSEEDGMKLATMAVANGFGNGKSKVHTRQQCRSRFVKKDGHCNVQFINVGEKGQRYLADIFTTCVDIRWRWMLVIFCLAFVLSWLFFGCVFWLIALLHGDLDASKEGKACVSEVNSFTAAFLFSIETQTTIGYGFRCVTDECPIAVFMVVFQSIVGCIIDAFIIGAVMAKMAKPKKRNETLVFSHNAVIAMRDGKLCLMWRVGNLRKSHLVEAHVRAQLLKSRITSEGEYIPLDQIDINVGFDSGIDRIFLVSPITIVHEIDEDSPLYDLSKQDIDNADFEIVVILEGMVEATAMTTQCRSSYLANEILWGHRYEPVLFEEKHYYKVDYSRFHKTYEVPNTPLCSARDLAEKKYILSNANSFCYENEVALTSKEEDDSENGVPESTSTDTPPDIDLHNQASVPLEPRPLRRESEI

[5] = test system: paroxysmal atrial fibrillation; details: average population; cited from earlier work
[6] = test system: ACh-mediated AF in isolated arterially-perfused canine right atrium; experiment: Termination of ACh-induced persistent AF in canine isolated coronary-perfused right atrial preparations (Series II); parameters: species or system canine (Beagles); details: flecainide 1.5 μM, ibutilide 20 nM, ACh 0.5 μM
Description: Experiments were performed using isolated arterially-perfused canine preparations consisting of right atrium with a rim of right ventricle. The hearts were from Beagles approximately 1 year of age and were stored in ice cold cardioplegic solution for approximately 40 minutes before experimentation.
During experiments, transmembrane action potential (AP) recordings (sampling rate 41 kHz) were obtained from the atrium and ventricle using floating glass microelectrodes (10-25 MΩ DC resistance). A pseudo-electrocardiogram (ECG) was recorded using two electrodes consisting of Ag/AgCl half cells placed in the Tyrode's solution, bathing the preparation, 1.0 to 1.2 cm from opposite ends of the atrial coronary-perfused preparations (FIG. 1). […] The diastolic threshold of excitation (DTE) was determined by increasing stimulus intensity in 0.01 mA steps starting from 0.1 mA, until a steady 1:1 activation was achieved. Post-repolarization refractoriness (PRR) was recognized when ERP exceeded APD90 in the ventricle and APD70 in atria. Ventricular ERP coincides with APD90, whereas atrial ERP generally coincides with APD70.
Ventricular electrical activity was monitored for the development of early afterdepolarizations (EADs) and torsade de pointes (TdP).
Stock solutions were made by dissolving test article dry powder in distilled water vehicle. […]

[7] = test system: canine left ventricular wedge preparations; experiment: Canine left ventricular wedge preparation, repolarization/EAD sensitised (Series III); details: ibutilide 50 nM 40 min, then flecainide 1.5 μM 30 min added; 3 mM KCl
Description: Drugs were administered in the order and concentrations specified in TABLE 4.
Canine left ventricular (LV) wedge preparations were excised from the same hearts used to obtain the right atrial preparations.
Panel A: Control. […] The numbers appearing under M APs indicate APD90 values, and those on the ECG recordings indicate QT interval values.

Sinclair swine [8] = experiment: Clinical observations and survival in swine; assay type: in vivo; details: two animals (one treatment A, one treatment B); deemed due to anesthesia
Description: All animals survived to study completion. Animals underwent clinical observations continuously while the animals are under anesthesia during, pre- and post-dosing through to final blood collection per TXP-1532, Pharmacologic and Toxicological Observations of Experimental Animals, and twice daily per ACL-1974 Receipt, Quarantine and Husbandry of Swine. […] One of the animals in question was during the high-dose treatment (“B”) and was intubated and provided oxygen under the direction of veterinary staff. The other animal was during the low-dose treatment (“A”) and returned to breathing normally without need of additional support. Both of these abnormal events were deemed due to anesthesia.
All animals survived to study completion with no definitive test article clinical observations.

[9] = molecular target: L-type calcium channels (ICaL), CaV1.2 channels (Homo sapiens, UniProt Q13936); details: cited from earlier work
[10] = Treatment A (flecainide 1 mg/kg, ibutilide 0.007 mg/kg or both, IV), individual animal
[11] = Treatment B (flecainide 2 mg/kg, ibutilide 0.014 mg/kg or both, IV), individual animal

| Structure (SMILES) | Avg ATcV, baseline-normalized post-infusion (Sinclair swine [2]; [10]) | Avg HR, baseline-normalized post-infusion (Sinclair swine [2]; [10]) | Avg PR, baseline-normalized post-infusion (Sinclair swine [2]; [10]) | Avg QRS, baseline-normalized post-infusion (Sinclair swine [2]; [10]) | Avg QT, baseline-normalized post-infusion (Sinclair swine [2]; [10]) | Avg QTcB, baseline-normalized post-infusion (Sinclair swine [2]; [10]) | Avg QTcF, baseline-normalized post-infusion (Sinclair swine [2]; [10]) | Avg ATcV, baseline-normalized post-infusion (Sinclair swine [2]; Treatment A, group mean) [%] | Avg HR, baseline-normalized post-infusion (Sinclair swine [2]; Treatment A, group mean) [%] | Avg PR, baseline-normalized post-infusion (Sinclair swine [2]; Treatment A, group mean) [%] | Avg QRS, baseline-normalized post-infusion (Sinclair swine [2]; Treatment A, group mean) [%] | Avg QT, baseline-normalized post-infusion (Sinclair swine [2]; Treatment A, group mean) [%] | Avg QTcB, baseline-normalized post-infusion (Sinclair swine [2]; Treatment A, group mean) [%] | Avg QTcF, baseline-normalized post-infusion (Sinclair swine [2]; Treatment A, group mean) [%] | Avg ATcV, baseline-normalized post-infusion (Sinclair swine [2]; [11]) | Avg HR, baseline-normalized post-infusion (Sinclair swine [2]; [11]) | Avg PR, baseline-normalized post-infusion (Sinclair swine [2]; [11]) | Avg QRS, baseline-normalized post-infusion (Sinclair swine [2]; [11]) | Avg QT, baseline-normalized post-infusion (Sinclair swine [2]; [11]) | Avg QTcB, baseline-normalized post-infusion (Sinclair swine [2]; [11]) | further results |
| --- | --- | --- | --- | --- | --- | --- | --- | --- | --- | --- | --- | --- | --- | --- | --- | --- | --- | --- | --- | --- | --- |
| CCCCCCCCCCCCCCCC(=O)OC[C@H](COP(=O)([O-])OCC[N+](C)(C)C)OC(=O)CCCCCCCCCCCCCCC [DPPC, dipalmitoylphosphatidylcholine] |  |  |  |  |  |  |  |  |  |  |  |  |  |  |  |  |  |  |  |  | solubility in water [1]: about 10^−10 mol/L |
| O=C(NCC1CCCCN1)c1cc(OCC(F)(F)F)ccc1OCC(F)(F)F (stereo not drawn) [Flecainide, N-(piperidin-2-ylmethyl)-2,5-bis(2,2,2-trifluoroethoxy)benzamide] | −4.4% and −6.0% and −2.6% | −7.2% and −26.5% and −9.6% | 22.3% and 17.5% and 8.6% | 0.1% and −1.3% and 3.5% | −3.5% and −1.6% and −1.4% | −7.1% and −15.7% and −6.3% | −5.9% and −11.2% and −4.7% | −4.3 | −14.5 | 16.1 | 0.7 | −2.2 | −9.7 | −7.3 | 11.4% and −2.3% and −1.9% | 0.4% and −18.8% and −13.6% | 13.3% and 9.7% and 24.6% | 4.4% and 3.3% and 18.2% | 12.6% and 2.1% and 0.1% | 12.8% and −8.0% and −6.9% | Avg QTcF, baseline-normalized post-infusion (Sinclair swine [2]; [11]): 12.7% and −4.7% and −4.6%; Avg ATcV, baseline-normalized post-infusion (Sinclair swine [2]; Treatment B, group mean): 2.4%; Avg HR, baseline-normalized post-infusion (Sinclair swine [2]; Treatment B, group mean): −10.7%; Avg PR, baseline-normalized post-infusion (Sinclair swine [2]; Treatment B, group mean): 15.8%; Avg QRS, baseline-normalized post-infusion (Sinclair swine [2]; Treatment B, group mean): 8.7%; Avg QT, baseline-normalized post-infusion (Sinclair swine [2]; Treatment B, group mean): 4.9%; Avg QTcB, baseline-normalized post-infusion (Sinclair swine [2]; Treatment B, group mean): −0.7%; Avg QTcF, baseline-normalized post-infusion (Sinclair swine [2]; Treatment B, group mean): 1.1%; unbinding time τoff [3]: ≈ 20.5 sec; IC50 ([4]; read-out: potency for inhibition of RyR2): ~20 µM; IC50 ([4]; value used in O'Hara-Rudy model, read-out: IC50 IRyR): 20 µM; IC50 (Ito): 15.2 µM; EC50 (IK1): 0.4 µM; patients with paroxysmal atrial fibrillation exhibiting resistance to monotherapy [5]: approximately 30% |
| CCCCCCCN(CC)CCCC(O)c1ccc(NS(C)(=O)=O)cc1 (stereo not drawn) [Ibutilide, N-(4-(4-(ethyl(heptyl)amino)-1-hydroxybutyl)phenyl)methanesulfonamide] | 14.4% and 10.5% and 5.0% | −19.5% and −54.7% and −28.7% | 4.8% and 40.7% and 7.1% | 8.2% and 7.3% and 4.9% | 19.9% and 28.1% and 11.7% | 7.5% and −13.4% and −5.8% | 11.5% and −1.4% and −0.3% | 10.0 | −34.3 | 17.5 | 6.8 | 19.9 | −3.9 | 3.3 | 16.1% and 13.1% and 13.6% | −38.3% and −12.7% and −15.4% | 28.2% and 2.9% and 14.7% | 7.7% and 16.8% and 6.5% | 26.6% and 16.3% and 18.3% | −0.6% and 8.5% and 8.9% | termination of ACh-induced persistent AF (preparations terminated out of tested) [6]: 1 out of 3; effect on repolarization (QT interval, Tpeak-Tend) [7]: significantly prolonged repolarization; Avg QTcF, baseline-normalized post-infusion (Sinclair swine [2]; [11]): 7.8% and 11.0% and 11.9%; Avg ATcV, baseline-normalized post-infusion (Sinclair swine [2]; Treatment B, group mean): 14.3%; Avg HR, baseline-normalized post-infusion (Sinclair swine [2]; Treatment B, group mean): −22.1%; Avg PR, baseline-normalized post-infusion (Sinclair swine [2]; Treatment B, group mean): 15.3%; Avg QRS, baseline-normalized post-infusion (Sinclair swine [2]; Treatment B, group mean): 10.3%; Avg QT, baseline-normalized post-infusion (Sinclair swine [2]; Treatment B, group mean): 20.4%; Avg QTcB, baseline-normalized post-infusion (Sinclair swine [2]; Treatment B, group mean): 5.6%; Avg QTcF, baseline-normalized post-infusion (Sinclair swine [2]; Treatment B, group mean): 10.3%; QT/QTc (QTcV) change post-infusion (Sinclair swine [2]; treatments A/B): increased; abnormal clinical observations (Sinclair swine [8]): stopped breathing under anesthesia |
| [Mg+2] [Mg^2+] |  |  |  |  |  |  |  |  |  |  |  |  |  |  |  |  |  |  |  |  | decrease in ICaL ([9]; ICaL stimulated by cAMP (beta-adrenergic agonists)): about 63%; decrease in ICaL ([9]; basal conditions): about 26% |
